The values that follow come from US20140303078A1, “MODULATION OF PANCREATIC BETA CELL PROLIFERATION” (President and Fellows of Harvard College, priority 2011, published 2014).

In data set [1] the test system is pancreatic beta cells. Nature of the data set: S661 repeated dosing in normal mice, BrdU incorporation by immunohistochemistry. Conditions: 4 days. It is filed as in vivo, C57Bl/6 mice. As to the method: FIG. 12 is a bar graph showing beta cell replication after repeated dosing of S661 in the pancreas of normal mice. Increased replication is shown as a fold increase compared to vehicle rate. Replication was analyzed by immunohistochemistry. The control in these experiments is a vehicle without S661.
In a study, S661 was administered subcutaneously in vehicle to C57Bl/6 mice 3 times daily at the following doses 1 mg/kg; 0.5 mg/kg; 0.25 mg/kg or 0.125 mg/kg bodyweight for a period of 4 days. In parallel BrdU was administered once daily at a dose of 100 mg/kg for the same period. At the fifth day the pancreas was removed and fixed in PFA. Paraffin embedded sections were stained for insulin, DAPI and BrdU. The incorporation of BrdU in replicating beta cells was analyzed using an automated script on images generated on a Zeiss Axioimager Z2.
Background: Dividing cells build labelled thymidine or BrdU into new DNA.

The test system of data set [2] is pancreatic beta cells. As to the kind of experiment: S661 once daily in normal mice, beta cell replication by flow cytometry. Conditions: S661 1 mg/kg s.c. once daily, 4 days. The class given is in vivo, C57Bl/6 mice. Here is the method: FIG. 13 is a bar graph showing beta cell replication after repeated dosing of S661 in normal mice. Increased beta cell replication with S661 treatment is shown as a percentage of replication. Replication was analyzed by flow cytometry. The control in these experiments is a vehicle without S661. (*** p<0.001; Student's T-Test)
In another study, S661 was administered subcutaneously in vehicle to C57Bl/6 mice as once daily injections of 1 mg/kg bodyweight for a period of 4 days. In parallel BrdU was administered once daily at a dose of 100 mg/kg for the same period. At the fifth day the pancreas was removed and the replication of beta cell was measured by flow cytometry.
(Flow cytometry measures light scatter and fluorescence of single cells or particles in a stream.)

Data set [3] has as its system pancreatic beta cells. As to the kind of experiment: S661 repeated dosing in diet-induced obesity (DIO) mice, BrdU immunohistochemistry. The class given is in vivo, C57Bl/6 mice (DIO). Conditions: S661 3 times 1 mg/kg or 0.125 mg/kg s.c., 4 days. As to the method: Increased beta cell replication with S661 treatment is shown as percent replication; there was no effect on non-beta cell replication. […] Immunohistochemistry was performed to analyze replication and islet area. (* p<0.05; ** p<0.01; Student's T-Test)
C57Bl/6 mice were fed a high fat diet for 17 weeks. S661 was administered subcutaneously in vehicle to DIO mice at doses of 3 times 1 mg/kg or 0.125 mg/kg bodyweight for a period of 4 days. In parallel BrdU was administered once daily at a dose of 100 mg/kg for the same period. At the fifth day the pancreas was removed and fixed in PFA. Paraffin embedded sections were stained for insulin, DAPI and BrdU. The incorporation of BrdU in replicating cells was analyzed using an automated script on images generated on a Zeiss Axioimager Z2.

For data set [4] the following is noted: obese rats, previous reports; cited from earlier work.
Data set [5] has as its system pancreatic beta cells. As to the kind of experiment: S961 treatment of mice, beta cell replication (Ki67/insulin immunostaining of pancreas). The class given is in vivo. Conditions: 0.125 to 1 μMol/Kg/week, vs vehicle. From the text: The white arrows point to replicating beta cells. FIG. 1C is a bar graph showing Ki67+/insulin+% after treatment for 7 days with increasing doses (from 0.125 μMol/Kg/week to 1 μMol/Kg/week) of S961. […] The control in these experiments is vehicle without S961. To count the Ki67+/insulin+ percentage and the beta cell area/pancreas area, the whole pancreas was cryosectioned and immunostained, and the standard graph analysis tools such as Metamorph and Photoshop were used for the quantification.
As described herein, administration of a low dose of insulin receptor antagonist S961 to a mammal produces an increase in beta cell replication (FIG. 1). Following injection of S961, gene expression in liver, muscle, and fat was analyzed because these tissues are involved in carbohydrate storage and metabolism. Of particular interest as a result of this analysis was mouse gene EG624219.

A further data set deals with TD26 (EG624219) mRNA. Nature of the data set: TD26 mRNA expression in tissues of mice treated with S961 for 7 days. It is filed as in vivo. Conditions: liver and fat. The text has this:
Genes close to the diagonal line show similar expression values in treated and untreated liver. […] TD26 expression increases in the liver and fat upon S961 treatment. […] The presumptive signal peptide is included at the N-terminus. […] Hepa1-6 cells have been transfected with a plasmid carrying the gene for TD26 fused to a Myc-tag. The cells were stained with myc antibody.

The nature of data set [6]: Blood glucose levels after administration of S961. The class given is in vivo. From the text: As used herein, low doses of S961 will typically be less than 1 μMol/Kg/week, preferably from 0.125 μMol/Kg/week to 0.5 μMol/Kg/week. However it will be understood that increased doses may be useful as well, particularly if utilized in conjunction with an anti-hyperglycemic agent.

Like-named read-outs stand apart in the source and are kept apart here. Ends that are not written are not given here.

As to “S661: 43 amino acid peptide insulin receptor antagonist, SEQ ID NO: 16 (GSLDESFYDWFERQLGGGSGGSSLEEEWAQIQCEVWGRGCPSY), C-terminus is an amide (GSLDESFYDWFERQLGGGSGGSSLEEEWAQIQCEVWGRGCPSY-NH2; cysteine pairing not given here)”, the “increase in β-cell replication in comparison to vehicle” value in the data set with pancreatic beta cells [1] (S661 0.125 mg/kg s.c. 3 times daily) amounted to 2 fold. In addition, the “increase in β-cell replication in comparison to vehicle” value in the data set with pancreatic beta cells [1] (S661 1 mg/kg s.c. 3 times daily) was 5 fold. Further, the “increase in the percentage of beta cell replication as compared to vehicle” value with pancreatic beta cells [2] is listed as about 5 fold. Moreover, in the data set on pancreatic beta cells [3], the beta cell replication entry is “increased amount of beta cell replication”, the “islet area relative to total pancreas area” value is “increased islet area relative to total pancreas area” and the non-beta cell replication result is on record as “does not increase non-beta cell replication”. The blood glucose levels result in data set [4] was “marked increase in blood glucose levels”.
As for “S961: 43 amino acid peptide insulin receptor antagonist, SEQ ID NO: 16 (GSLDESFYDWFERQLGGGSGGSSLEEEWAQIQCEVWGRGCPSY), C-terminus is an acid (GSLDESFYDWFERQLGGGSGGSSLEEEWAQIQCEVWGRGCPSY-OH; cysteine pairing not given here)”, the “beta cell replication (Ki67+/insulin+)” value in the data set with pancreatic beta cells [5] (treatment for 7 to 10 days) is listed as “induces beta cell replication”. In addition, the “beta cell area/pancreas area” value in the data set with pancreatic beta cells [5] (treatment for 7 days) is “significant increase”. In addition, in the data set on TD26 (EG624219) mRNA, the “relative expression of TD26 mRNA” value is given as “increases”. Moreover, the blood glucose levels result in data set [6] (increasing doses of S961) was “blood glucose levels increase”; in data set [6] (low doses of S961), “does not increase blood glucose levels”.
